Data: US20020137154A1, “Methods for improving cell growth and alcohol production during fermentation” (priority 2000, published 2002)

Tests used:
[1] = tested on: recombinant Escherichia coli KO11; experiment: Batch fermentation of E. coli KO11 in 1% CSL medium and xylose with nutrient additives: ethanol production and cell growth; assay type: cell-based; settings: additive 2 g/L unless indicated; for activity at 2000 µg/mL: Escherichia coli
Method: (§1) Two types of media were tested: 1% CSL and Luria broth (LB). Each contained 97 g of either xylose or glucose per liter. Luria Broth consists of, per liter: 10 g Difco® Tryptone, 5 g Difco® Yeast Extract and 5 g NaCl. The 1% CSL medium consists of Corn Steep Liquor (1% w/v) plus mineral salts (mineral salts per liter: 1 g of KH2PO4. 0.5 g of K2HPO4, 3.1 g of (NH4)2SO4, 0.4 g of MgCl2·6H2), and 20 mg FeCl3·6H2O).
(§2) Luria Broth was prepared by autoclaving a 2× nutrient stock containing, per liter: 20 g Difco® Tryptone, 10 g Difo® Yeast Extract, and 10 g NaCl. Sugars (xylose or glucose) were autoclaved separately. A 1% CSL medium was prepared as follows: Commercial Corn Steep Liquor (CSL; 50% dry weight/50% water) was diluted with tap water to make a 20X stock containing 100 g dry weight of Corn Steep Liquor/L and was adjusted to pH 7.2 with NaOH (50%). After sterilization by autoclaving, the 20X CSL stock was clarified by centrifugation at 5000×g for 10 minutes. Magnesium was added as a 100× stock solution (40 g/L MgCl2·6H2O). Iron was added as a 1000× stock solution made by dissolving 20 g FeCl3·6H2O in 175 mL of HCl and adjusting to 1 L with sterile water. Nitrogen, sulfur and phosphorus were added using a 20× stock solution containing the following (per liter): 20 g of KH2PO4, 10 g of K2HPO4 and 62 g of (NH4)2SO4. Stock solutions containing minerals were sterilized separately by autoclaving. Final media was prepared by adding 750 mL of water to 1 L bottle containing 100 g of xylose or glucose.
Inocula were grown in same media used for fermentation and were prepared as follows. Three colonies from a fresh plate were used to inoculate seed cultures: 250-mL flask containing 100 mL medium. These cultures were grown with agitation (120 rpm) for 12-16 hours at 35° C. to a final OD550nm of approximately 2.0-2.5. Cells were harvested by centrifugation at 5000×g for 5 minutes, and resuspended in fresh media to an OD550nm of 0.1. The resulting suspension was distributed into 500-mL beakers containing 345 ml each of fermentation medium. Acetaldehyde was added as indicated. Batch fermentations (35° C., 100 rpm) were maintained at pH 6.5 by the automatic addition of 2N KOH. Cell mass, ethanol, and base addition (2N KOH) were recorded during 96 hours of incubation. […]
(§3) Additives (e.g., as listed in Table 1) were dissolved in 5 mL di-H2O. Solutions with pH lower than 5 were neutralized to pH 6.5 with 2N KOH. Nutritional supplements were then filter-sterilized (0.45 μm filter disk) directly into the fermentation vessel containing the culture. The final concentration of all additives in the culture medium was 2 g/L unless otherwise indicated.
(§4) Cell mass was estimated by measuring OD550nm using Baush & Lomb® Spectronic 70 spectrophotometer. […] Ethanol was measured by gas chromatography using a Varian® 3400 CX gas chromatograph with 1-propanol as an internal standard.
(§5) Tables 1, 3, and 5 show time to completion of fermentation, ethanol production, and volumetric productivity of the fermentation for all concentrations of the compound and the control. Maximum ethanol production is shown in grams/liter (g/L). The ethanol yield is shown in grams of ethanol/grams of added sugar. Maximum volumetric productivity is shown in grams ethanol/(liter)(hour). The average productivity is calculated form the start of fermentation to the completion of fermentation is grams ethanol/(liter)hour).
Tables 2, 4, and 6 show the initial growth of the cells (OD taken after the first 24 hours of fermentation) and the maximum cell density (the time which culture reaches the maximum OD value). […]

[2] = tested on: recombinant Escherichia coli KO11; experiment: Batch fermentation of E. coli KO11 in 1% CSL medium and glucose with nutrient additives: ethanol production and cell growth; assay type: cell-based; settings: additive 2 g/L unless indicated; for activity at 2000 µg/mL: Escherichia coli
Method: as §1, §2
Inocula were grown in same media used for fermentation and were prepared as follows. Three colonies from a fresh plate were used to inoculate seed cultures: 250-mL flask containing 100 mL medium. These cultures were grown with agitation (120 rpm) for 12-16 hours at 35° C. to a final OD550nm of approximately 2.0-2.5. Cells were harvested by centrifugation at 5000×g for 5 minutes, and resuspended in fresh media to an OD550nm of 0.1. The resulting suspension was distributed into 500-mL beakers containing 345 ml each of fermentation medium. Acetaldehyde was added as indicated. Batch fermentations (35° C., 100 rpm) were maintained at pH 6.5 by the automatic addition of 2N KOH. Cell mass, ethanol, and base addition (2N KOH) were recorded during 96 hours of incubation.
Equivalent amounts of distilled water were added instead of the acetaldehyde in control experiments.
as §3, §4, §5
Tables 2, 4, and 6 show the initial growth of the cells (OD taken after the first 24 hours of fermentation) and the maximum cell density (the time which culture reaches the maximum OD value).
Acetaldehyde was added to the fermentation medium at five different concentrations and time points. […] Where two additions are indicated, the first volume was added at the start of fermentation and the second was added after 8 hours of fermentation.

[3] = 24 h, read-out: Initial Growth (OD @ 24 h) % Control, 1% CSL+xylose
[4] = read-out: Ethanol Production Maximum % Control, 1% CSL+xylose
[5] = read-out: Maximum Cell Density % Control, 1% CSL+xylose
[6] = read-out: Volumetric Productivity Average % Control, 1% CSL+xylose
[7] = read-out: Volumetric Productivity Maximum % Control, 1% CSL+xylose
[8] = 24 h, read-out: Initial Growth (OD @ 24 h) % Control, 1% CSL+glucose
[9] = read-out: Ethanol Production Maximum % Control, 1% CSL+glucose
[10] = read-out: Maximum Cell Density % Control, 1% CSL+glucose
[11] = read-out: Volumetric Productivity Average % Control, 1% CSL+glucose
[12] = read-out: Volumetric Productivity Maximum % Control, 1% CSL+glucose

## O=C(O)/C=C/C(=O)O [Fumarate]
[1]; 1% CSL+xylose
  Ethanol Production Maximum: 28.49 g/L
  Ethanol Production Maximum % Control: 94.73%
  Ethanol yield: 0.293 grams of ethanol/grams of added sugar
  Initial Growth (OD @ 24 h) % Control: 91.16%
  Initial Growth (OD @ 24 h) OD: 1.86 OD
  Maximum Cell Density % Control: 103.15%
  Maximum Cell Density OD: 2.60 OD
  Maximum Cell Density Time: 96 h
  Time to completion: >96 h
  Volumetric Productivity Average: 0.297 grams ethanol/(liter)(hour)
  Volumetric Productivity Average % Control: 94.73%
  Volumetric Productivity Maximum: 0.345 grams ethanol/(liter)(hour)
  Volumetric Productivity Maximum % Control: 93.682%
[2]; 1% CSL+glucose
  Ethanol Production Maximum: 32.92 g/L
  Ethanol Production Maximum % Control: 88.98%
  Ethanol yield: 0.339 grams of ethanol/grams of added sugar
  Initial Growth (OD @ 24 h) % Control: 99.76%
  Initial Growth (OD @ 24 h) OD: 2.67 OD
  Maximum Cell Density % Control: 117.92%
  Maximum Cell Density OD: 3.17 OD
  Maximum Cell Density Time: 72 h
  Time to completion: 96 h
  Volumetric Productivity Average: 0.343 grams ethanol/(liter)(hour)
  Volumetric Productivity Average % Control: 88.98%
  Volumetric Productivity Maximum: 0.559 grams ethanol/(liter)(hour)
  Volumetric Productivity Maximum % Control: 108.88%

## O=C(O)CC(O)(CC(=O)O)C(=O)O [Citrate]
[1]; 1% CSL+xylose
  Ethanol Production Maximum: 28.80 g/L
  Ethanol yield: 0.296 grams of ethanol/grams of added sugar
  Initial Growth (OD @ 24 h) OD: 2.12 OD
  Maximum Cell Density OD: 2.47 OD
  Maximum Cell Density Time: 96 h
  Volumetric Productivity Average: 0.300 grams ethanol/(liter)(hour)
  Volumetric Productivity Maximum: 0.339 grams ethanol/(liter)(hour)
[1]; [3]
  activity at 2000 µg/mL: 104%
[1]; [4]
  activity at 2000 µg/mL: 95.7%
[1]; [5]
  activity at 2000 µg/mL: 98.1%
[1]; [6]
  activity at 2000 µg/mL: 95.7%
[1]; [7]
  activity at 2000 µg/mL: 92%
[2]; 1% CSL+glucose
  Ethanol Production Maximum: 32.87 g/L
  Ethanol yield: 0.338 grams of ethanol/grams of added sugar
  Initial Growth (OD @ 24 h) OD: 2.43 OD
  Maximum Cell Density OD: 2.58 OD
  Volumetric Productivity Average: 0.342 grams ethanol/(liter)(hour)
  Volumetric Productivity Maximum: 0.502 grams ethanol/(liter)(hour)
[2]; [8]
  activity at 2000 µg/mL: 91%
[2]; [9]
  activity at 2000 µg/mL: 88.9%
[2]; [10]
  activity at 2000 µg/mL: 96%
[2]; [11]
  activity at 2000 µg/mL: 88.9%
[2]; [12]
  activity at 2000 µg/mL: 97.8%

## C[C@H](N)C(=O)O [Alanine, alanine]
[1]; 1% CSL+xylose
  Ethanol Production Maximum: 21.66 g/L
  Ethanol yield: 0.223 grams of ethanol/grams of added sugar
  Initial Growth (OD @ 24 h) OD: 1.66 OD
  Maximum Cell Density OD: 1.73 OD
  Maximum Cell Density Time: 48 h
  Volumetric Productivity Average: 0.226 grams ethanol/(liter)(hour)
  Volumetric Productivity Maximum: 0.240 grams ethanol/(liter)(hour)
[1]; [3]
  activity at 2000 µg/mL: 81.3%
[1]; [4]
  activity at 2000 µg/mL: 72%
[1]; [5]
  activity at 2000 µg/mL: 68.8%
[1]; [6]
  activity at 2000 µg/mL: 72%
[1]; [7]
  activity at 2000 µg/mL: 65.2%
[2]; 1% CSL+glucose
  Ethanol Production Maximum: 34.37 g/L
  Ethanol yield: 0.354 grams of ethanol/grams of added sugar
  Initial Growth (OD @ 24 h) OD: 2.08 OD
  Maximum Cell Density OD: 2.68 OD
  Volumetric Productivity Average: 0.358 grams ethanol/(liter)(hour)
  Volumetric Productivity Maximum: 0.468 grams ethanol/(liter)(hour)
[2]; [8]
  activity at 2000 µg/mL: 78%
[2]; [9]
  activity at 2000 µg/mL: 92.9%
[2]; [10]
  activity at 2000 µg/mL: 99.8%
[2]; [11]
  activity at 2000 µg/mL: 92.9%
[2]; [12]
  activity at 2000 µg/mL: 91.1%

## O=C(O)CC(O)C(=O)O (stereo not shown) [Malate, malate]
[1]; 1% CSL+xylose
  Ethanol Production Maximum: 24.43 g/L
  Ethanol yield: 0.252 grams of ethanol/grams of added sugar
  Initial Growth (OD @ 24 h) OD: 1.71 OD
  Maximum Cell Density OD: 2.42 OD
  Maximum Cell Density Time: 96 h
  Volumetric Productivity Average: 0.255 grams ethanol/(liter)(hour)
  Volumetric Productivity Maximum: 0.274 grams ethanol/(liter)(hour)
[1]; [3]
  activity at 2000 µg/mL: 83.9%
[1]; [4]
  activity at 2000 µg/mL: 81.2%
[1]; [5]
  activity at 2000 µg/mL: 96.3%
[1]; [6]
  activity at 2000 µg/mL: 81.2%
[1]; [7]
  activity at 2000 µg/mL: 74.5%
[2]; 1% CSL+glucose
  Ethanol Production Maximum: 27.58 g/L
  Ethanol yield: 0.284 grams of ethanol/grams of added sugar
  Initial Growth (OD @ 24 h) OD: 3.19 OD
  Maximum Cell Density OD: 3.39 OD
  Volumetric Productivity Average: 0.287 grams ethanol/(liter)(hour)
  Volumetric Productivity Maximum: 0.498 grams ethanol/(liter)(hour)
[2]; [8]
  activity at 2000 µg/mL: 119%
[2]; [9]
  activity at 2000 µg/mL: 74.6%
[2]; [10]
  activity at 2000 µg/mL: 126%
[2]; [11]
  activity at 2000 µg/mL: 74.6%
[2]; [12]
  activity at 2000 µg/mL: 97%

## N[C@@H](CC(=O)O)C(=O)O [Aspartate, aspartate]
[1]; 1% CSL+xylose
  Ethanol Production Maximum: 27.90 g/L
  Ethanol yield: 0.287 grams of ethanol/grams of added sugar
  Initial Growth (OD @ 24 h) OD: 1.76 OD
  Maximum Cell Density OD: 2.45 OD
  Maximum Cell Density Time: 72 h
  Volumetric Productivity Average: 0.291 grams ethanol/(liter)(hour)
  Volumetric Productivity Maximum: 0.304 grams ethanol/(liter)(hour)
[1]; [3]
  activity at 2000 µg/mL: 86.3%
[1]; [4]
  activity at 2000 µg/mL: 92.7%
[1]; [5]
  activity at 2000 µg/mL: 97.2%
[1]; [6]
  activity at 2000 µg/mL: 92.7%
[1]; [7]
  activity at 2000 µg/mL: 82.4%
[2]; 1% CSL+glucose
  Ethanol Production Maximum: 41.79 g/L
  Ethanol yield: 0.430 grams of ethanol/grams of added sugar
  Initial Growth (OD @ 24 h) OD: 2.86 OD
  Maximum Cell Density OD: 3.79 OD
  Volumetric Productivity Average: 0.580 grams ethanol/(liter)(hour)
  Volumetric Productivity Maximum: 0.759 grams ethanol/(liter)(hour)
[2]; [8]
  activity at 2000 µg/mL: 107%
[2]; [9]
  activity at 2000 µg/mL: 113%
[2]; [10]
  activity at 2000 µg/mL: 141%
[2]; [11]
  activity at 2000 µg/mL: 151%
[2]; [12]
  activity at 2000 µg/mL: 148%
